This passage reports IC50 and Protection results from ChEMBL document CHEMBL1132508, “N,N-dialkyl-dipeptidylamines as novel N-type calcium channel blockers” (Bioorg Med Chem Lett, 1999).

Assay [1] concerns the target Voltage-dependent N-type calcium channel subunit alpha-1B (Homo sapiens, UniProt Q00975). The assay is described as follows: In vitro inhibitory activity against N-type calcium channel in the IMR-32 human neuroblastoma cells. In kind it is cell-based.
For assay [2], the system named is Mus musculus. Put plainly: Ability to prevent the audiogenic seizure (tonic seizure phase) in DBA/2 mice (N = 5 mice/ dose tested) tested in vivo at a concentration of 3 mg/kg. The format is functional.
Assay [3] deals with Mus musculus. The assay is described as follows: Ability to prevent the audiogenic seizure (tonic seizure phase) in DBA/2 mice (N = 5 mice/ dose tested) tested in vivo at a concentration of 10 mg/kg. The format is functional.
The test system of assay [4] is Mus musculus. The assay is described as follows: Ability to prevent the audiogenic seizure (tonic seizure phase) in DBA/2 mice (N = 5 mice/ dose tested) tested in vivo at a concentration of 100 mg/kg. The format is functional.

Square brackets hold non-standard residues; d marks the D form. Peptide text beside a SMILES is read from it. * marks the point of attachment. NMeL = CN[C@@H](CC(C)C)C(=O)O; Bz = O=C(c1ccccc1)*; NHtBu = CC(C)(C)N*

Sequence of Voltage-dependent N-type calcium channel subunit alpha-1B (Q00975 whole entry): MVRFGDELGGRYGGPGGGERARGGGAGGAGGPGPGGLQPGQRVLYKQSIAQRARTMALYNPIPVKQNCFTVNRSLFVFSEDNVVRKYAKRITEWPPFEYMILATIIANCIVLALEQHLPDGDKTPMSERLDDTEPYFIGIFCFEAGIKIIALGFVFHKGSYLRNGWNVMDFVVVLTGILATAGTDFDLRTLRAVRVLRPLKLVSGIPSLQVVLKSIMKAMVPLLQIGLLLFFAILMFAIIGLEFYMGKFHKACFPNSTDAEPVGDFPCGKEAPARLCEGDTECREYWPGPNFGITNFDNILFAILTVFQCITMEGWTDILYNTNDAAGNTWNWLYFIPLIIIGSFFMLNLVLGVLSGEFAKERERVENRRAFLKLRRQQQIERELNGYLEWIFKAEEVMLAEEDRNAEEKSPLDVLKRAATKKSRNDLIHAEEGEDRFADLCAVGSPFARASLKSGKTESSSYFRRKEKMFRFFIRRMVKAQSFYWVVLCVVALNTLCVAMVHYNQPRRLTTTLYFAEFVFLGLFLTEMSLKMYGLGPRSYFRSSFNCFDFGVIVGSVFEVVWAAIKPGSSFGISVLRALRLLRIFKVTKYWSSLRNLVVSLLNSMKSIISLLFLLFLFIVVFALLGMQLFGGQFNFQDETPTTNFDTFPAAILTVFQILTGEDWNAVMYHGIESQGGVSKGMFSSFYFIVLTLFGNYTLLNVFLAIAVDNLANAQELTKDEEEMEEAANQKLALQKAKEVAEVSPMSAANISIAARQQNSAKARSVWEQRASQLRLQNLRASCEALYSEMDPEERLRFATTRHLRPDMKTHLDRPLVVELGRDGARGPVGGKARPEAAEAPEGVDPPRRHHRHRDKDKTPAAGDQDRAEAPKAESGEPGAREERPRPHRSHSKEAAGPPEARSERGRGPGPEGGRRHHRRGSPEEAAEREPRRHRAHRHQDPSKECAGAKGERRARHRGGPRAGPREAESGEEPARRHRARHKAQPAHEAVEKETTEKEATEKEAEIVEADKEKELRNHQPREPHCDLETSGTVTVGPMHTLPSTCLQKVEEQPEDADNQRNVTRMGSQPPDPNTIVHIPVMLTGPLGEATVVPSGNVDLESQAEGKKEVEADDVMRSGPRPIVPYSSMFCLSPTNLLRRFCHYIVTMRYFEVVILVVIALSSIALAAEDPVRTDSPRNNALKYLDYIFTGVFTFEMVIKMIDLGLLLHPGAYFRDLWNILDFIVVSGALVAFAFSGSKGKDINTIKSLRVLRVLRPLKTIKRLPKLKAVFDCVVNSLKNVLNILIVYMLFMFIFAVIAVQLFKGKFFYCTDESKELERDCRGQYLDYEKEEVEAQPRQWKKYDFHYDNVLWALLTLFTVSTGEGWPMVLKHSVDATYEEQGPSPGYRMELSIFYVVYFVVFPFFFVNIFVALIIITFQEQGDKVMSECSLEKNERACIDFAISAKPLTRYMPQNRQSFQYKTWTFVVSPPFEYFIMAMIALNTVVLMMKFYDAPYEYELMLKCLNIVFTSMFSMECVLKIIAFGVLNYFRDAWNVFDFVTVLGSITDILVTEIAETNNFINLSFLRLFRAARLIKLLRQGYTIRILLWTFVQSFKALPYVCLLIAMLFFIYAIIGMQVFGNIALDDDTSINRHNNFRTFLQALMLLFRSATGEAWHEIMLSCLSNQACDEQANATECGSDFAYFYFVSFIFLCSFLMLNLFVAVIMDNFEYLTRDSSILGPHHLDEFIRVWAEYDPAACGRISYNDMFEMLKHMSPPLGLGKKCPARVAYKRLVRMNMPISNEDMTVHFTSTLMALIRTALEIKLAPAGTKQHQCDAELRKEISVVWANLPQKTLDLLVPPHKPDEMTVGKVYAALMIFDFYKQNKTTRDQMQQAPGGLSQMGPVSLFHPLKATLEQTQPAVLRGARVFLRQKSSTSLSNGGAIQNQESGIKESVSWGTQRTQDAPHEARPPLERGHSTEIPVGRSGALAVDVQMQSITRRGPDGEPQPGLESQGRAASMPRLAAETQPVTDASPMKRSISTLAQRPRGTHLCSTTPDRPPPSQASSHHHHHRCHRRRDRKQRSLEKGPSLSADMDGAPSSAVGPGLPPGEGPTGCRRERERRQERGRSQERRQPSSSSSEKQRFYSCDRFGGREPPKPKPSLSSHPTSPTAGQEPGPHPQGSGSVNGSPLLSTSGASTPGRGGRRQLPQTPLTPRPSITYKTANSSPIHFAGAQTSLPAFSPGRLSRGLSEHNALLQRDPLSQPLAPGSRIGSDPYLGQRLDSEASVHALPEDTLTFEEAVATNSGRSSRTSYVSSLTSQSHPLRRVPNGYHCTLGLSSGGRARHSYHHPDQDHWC

In general, IC50 refers to the concentration that gives 50% inhibition. Turning to `CCOC(=O)CN(C)[C@@H](CC(C)C)C(=O)N[C@@H](Cc1ccc(OC(=O)c2ccccc2)cc1)C(=O)NC(C)(C)C`, in assay [1], the IC50 worked out at 4400 nM.
Take `CC(C)C[C@H](NC(=O)N1CCCCCC1)C(=O)N[C@@H](Cc1ccc(OC(=O)c2ccccc2)cc1)C(=O)NC(C)(C)C`: in assay [1], the IC50 is 590 nM.
On the same count and under the same terms, then `CC(C)C[C@@H](C(=O)N[C@@H](Cc1ccc(OC(=O)c2ccccc2)cc1)C(=O)NC(C)(C)C)N1CCOCC1`, with 6400 nM; and `CC(C)C[C@@H](C(=O)N[C@@H](Cc1ccc(OC(=O)c2ccccc2)cc1)C(=O)NC(C)(C)C)N(C)CCC(C)(C)C`, with 400 nM.
For the compound `CC(C)CCN(C)[C@@H](CC(C)C)C(=O)N[C@@H](Cc1ccc(OC(=O)c2ccccc2)cc1)C(=O)NC(C)(C)C`, the Protection with Mus musculus [2] was determined as 20%; in the assay on Mus musculus [3], 80%. Also, the IC50 in assay [1] was found to be 320 nM.
Take `CC(C)C[C@@H](C(=O)N[C@@H](Cc1ccc(OC(=O)c2ccccc2)cc1)C(=O)NC(C)(C)C)N(C)C1CCCCC1`: the Protection with Mus musculus [2] was 20%; in the assay on Mus musculus [4] it was 100%. In addition, in assay [1], the IC50 is 200 nM.
For `CC(C)C[C@@H](C(=O)N[C@@H](Cc1ccc(OC(=O)c2ccccc2)cc1)C(=O)NC(C)(C)C)N(C)CC(C)C`, in assay [1], the IC50 turned out to be 380 nM.
As to `CN[C@@H](CC(C)C)C(=O)N[C@@H](Cc1ccc(OC(=O)c2ccccc2)cc1)C(=O)NC(C)(C)C` (H-[NMeL]-Tyr(Bz)-NHtBu), the IC50 in assay [1] worked out at 2300 nM.
On to `CC(C)C[C@@H](C(=O)N[C@@H](Cc1ccc(OC(=O)c2ccccc2)cc1)C(=O)NC(C)(C)C)N1CCCCC1`, for which, in assay [1], the IC50 is 1400 nM.
`CC(C)C[C@@H](C(=O)N[C@@H](Cc1ccc(OC(=O)c2ccccc2)cc1)C(=O)NC(C)(C)C)N(C)C(C)C`: the IC50 in assay [1] was 2800 nM.
In the assay on Mus musculus [3], `CC(C)C[C@@H](C(=O)N[C@@H](Cc1ccc(OC(=O)c2ccccc2)cc1)C(=O)NC(C)(C)C)N(C)CCC(C)O` (some centres undefined) came in with a Protection of 40%. For the same compound, the IC50 in assay [1] amounted to 2200 nM.
As to `CC(C)C[C@@H](C(=O)N[C@@H](Cc1ccc(OC(=O)c2ccccc2)cc1)C(=O)NC(C)(C)C)N(C)C`, the IC50 in assay [1] amounted to 2300 nM.
As to `CC(C)C[C@@H](C(=O)N[C@@H](Cc1ccc(OC(=O)c2ccccc2)cc1)C(=O)NC(C)(C)C)N(C)CC1CCCCC1`, the Protection with Mus musculus [3] is reported as 20%. In addition, the IC50 in assay [1] turned out to be 700 nM.
Regarding `CC(C)C[C@@H](C(=O)N[C@@H](Cc1ccc(OC(=O)c2ccccc2)cc1)C(=O)NC(C)(C)C)N(C)C1CCOCC1`, the IC50 in assay [1] is 3100 nM.
Still for that read-out and setting: for `CC(C)C[C@H](N)C(=O)N[C@@H](Cc1ccc(OC(=O)c2ccccc2)cc1)C(=O)NC(C)(C)C` (H-Leu-Tyr(Bz)-NHtBu) the value was 3800 nM; for `CCC(C)N(C)[C@@H](CC(C)C)C(=O)N[C@@H](Cc1ccc(OC(=O)c2ccccc2)cc1)C(=O)NC(C)(C)C` (some centres undefined), 1500 nM.
Turning to `CC(C)C[C@H](NC(=O)N1CCCCCC1)C(=O)N[C@@H](Cc1ccc(OC(=O)c2ccccc2)cc1)C(=O)OC(C)(C)C`, the IC50 in assay [1] was determined as 320 nM.
On the same count and under the same terms, then `CCCCN(C)[C@@H](CC(C)C)C(=O)N[C@@H](Cc1ccc(OC(=O)c2ccccc2)cc1)C(=O)NC(C)(C)C`, with 280 nM.
